The structures appear in SMILES notation.

The target of one assay is alpha-glucosidase enzyme. In words: Inhibition of alpha-glucosidase assay (PNPG substrate, 96-well plate). The following applies: enzyme from Saccharomyces cerevisiae. The assay is classed as biochemical. The protocol:
The assay was performed in 96-well plates. Both test samples and the positive control were dissolved in DMSO or MeOH. Test samples (20 μL) were added to their respective wells containing 150 μL of the enzyme (from Saccharomyces cerevisiae purchased from Sigma-Aldrich Co., St. Louis, MO, USA) solution (32 mU/mL), followed by incubation at 37 °C for 7 min. Subsequently, 150 μL of PNPG (4-Nitrophenyl-[…]-D-glucopyranoside, 2 mM) was introduced into each well, and the plate was further incubated at 37 °C for 20 min. The resulting absorbance, corresponding to the p-nitrophenol released during the reaction, was measured at 400 nm. All assays were performed in duplicate. The activity of the samples was calculated as a percentage relative to the control (DMSO or MeOH, instead of the sample solution), using the following equation: %Inhibition=(∆ Acontrol−∆ Asample)/∆ Acontrol×100%
ΔAcontrol: absorbance of the control—absorbance of the blank
ΔAsample: absorbance of the sample—absorbance of the sample blank.
The concentration necessary to achieve a 50% inhibition of enzyme activity (IC50) was calculated through regression analysis. Data obtained from alpha-glucosidase inhibition assays were expressed as the mean ± standard deviation (SD) of three replicates. Statistical analysis was performed using Excel 2019 (Microsoft, Seattle, WA, USA). Finally, a one-way analysis of variance (ANOVA) followed by Tukey’s post-test was used to evaluate possible differences between the means of each data. To determine significant differences, statistical significance was defined as p-values ≤ 0.05 [25].

The next assay concerns alpha-glucosidase. The assay is described as follows: Kinetics of alpha-glucosidase inhibition (Lineweaver-Burk plot). It is filed as biochemical, Saccharomyces cerevisiae. The conditions noted are these: Lineweaver-Burk plots, two inhibitor concentrations, various PNPG concentrations. The protocol: To determine the mode of inhibition of the compounds, fixed amounts of alpha-glucosidase were incubated with increasing concentrations of PNPG at 37 °C for 15 min, both in the absence and presence of inhibitors. Subsequently, the reactions were stopped, the sample absorbances were measured, and then the values obtained were analyzed using the Lineweaver–Burk plot. For this assay, three evaluations were performed, one in the absence of the inhibitor and the other using different concentrations of the inhibitors (at concentrations equivalent to their respective IC50 values). Again, the evaluations of each compound were performed in triplicate.

`CC[C@H](/C=C/[C@@H](C)[C@H]1CC[C@H]2[C@@H]3CC=C4C[C@@H](O)CC[C@]4(C)[C@H]3CC[C@]12C)C(C)C` [Compound 7, stigmasterol] gave an IC50 on alpha-glucosidase enzyme of 163 µM. For the same compound, in the assay with alpha-glucosidase, the “mode of inhibition of alpha-glucosidase” value is listed as “reversible competitive inhibition”.

Regarding `CC1(C)CC[C@]2(C)CC[C@]3(C)C(=CC[C@@H]4[C@@]5(C)CC[C@H](O)C(C)(C)[C@@H]5CC[C@]43C)[C@@H]2C1` [Compound 4, β-amyrin], the IC50 against alpha-glucosidase enzyme was determined as 1.22 µM.

`C[C@H]1O[C@H](O[C@H]2[C@H](O)[C@@H](O)[C@@H](O[C@H]3[C@H](O)[C@@H](O)C(O)O[C@@H]3CO)O[C@@H]2CO)[C@H](O)[C@@H](O)[C@@H]1N[C@H]1C=C(CO)[C@@H](O)[C@H](O)[C@H]1O` (some centres unmarked) [acarbose, reference compound]: the “mode of inhibition of alpha-glucosidase” value in the assay on alpha-glucosidase is given as “competitive inhibition”.

`CC[C@H](CC[C@@H](C)[C@H]1CC[C@H]2[C@@H]3CC=C4C[C@@H](O)CC[C@]4(C)[C@H]3CC[C@]12C)C(C)C` [Compound 6, sitosterol]: the IC50 at alpha-glucosidase enzyme is 18.7 µM. Further, the “mode of inhibition of alpha-glucosidase” value with alpha-glucosidase is listed as “reversible competitive inhibition”.

`C[C@H]1[C@H](C)CC[C@]2(C)CC[C@]3(C)C(=CC[C@@H]4[C@@]5(C)CC[C@H](O)C(C)(C)[C@@H]5CC[C@]43C)[C@H]12` [Compound 3, α-amyrin] registered an IC50 at alpha-glucosidase enzyme of 2.13 µM.

In the case of `C=C(C)[C@@H]1CC[C@]2(C)CC[C@]3(C)[C@H](CC[C@@H]4[C@@]5(C)CC[C@H](O)C(C)(C)[C@@H]5CC[C@]43C)[C@@H]12` [Compound 2, lupeol], half-maximal inhibition against alpha-glucosidase enzyme (IC50) required 1.05 µM.

The compound `CCCCCCCCCCCCCCCC(=O)O` [Compound 5, palmitic acid] showed an IC50 at alpha-glucosidase enzyme of 240 µM.

As for `C=C(C)[C@@H]1CC[C@]2(C)CC[C@]3(C)[C@H](CC[C@@H]4[C@@]5(C)CCC(=O)C(C)(C)[C@@H]5CC[C@]43C)[C@@H]12` [Compound 1, lupenone], at alpha-glucosidase enzyme, the IC50 amounted to 0.72 µM. Further, the “mode of inhibition of alpha-glucosidase” value in the assay with alpha-glucosidase is “reversible competitive inhibition”.

For the origin of these results see article PMC11279897, “Isolation of Alpha-Glucosidase Inhibitors from the Panamanian Mangrove Plant Mora oleifera (Triana ex Hemsl.) Ducke” (Pharmaceuticals, 2024).
